The record followed here is PubChem BioAssay AID1224921 (Broad Institute, 2016).

Calls of active or inactive are those of the source. No rule for the calls is given here.

The test deals with Clostridioides difficile clinical isolate growth, OD600, 24 h. Put plainly: C. difficile growth inhibition, confirmation, 4-point retest (AID 1224921).
`CO[C@H]1CN(C)C(=O)c2cc(NC(=O)Nc3ccc(Cl)c(Cl)c3)ccc2OC[C@@H](C)NC[C@@H]1C`: the AC50 – broadly, the concentration giving half of the maximal activity seen – is 4.39 µM.

With `O=C(C[C@@H]1CC[C@@H]2[C@H](COC[C@H](O)CN2C(=O)Nc2ccc(C(F)(F)F)cc2)O1)NCC1CC1`, the concentration at half-maximal activity (AC50) is 1.14 µM.

Consider `O=C(C[C@H]1CC[C@H]2[C@@H](COC[C@H](O)CN2C(=O)Nc2cc(Cl)cc(Cl)c2)O1)N1CCCCC1`, for which the half-maximal activity concentration (AC50) is 3.29 µM.

As for `CO[C@H](CN(C)C(=O)C1CC1)[C@@H](C)CN(C(=O)Nc1ccc(C(F)(F)F)cc1)[C@@H](C)CO`, the AC50 was 6.86 µM.

In the case of `CCNC(=O)C[C@@H]1CC[C@H]2[C@@H](COC[C@H](O)CN2C(=O)Nc2ccc(Cl)c(Cl)c2)O1`, the AC50 was 7.98 µM.

`C[C@@H]1CN([C@@H](C)CO)C(=O)c2cccc(NC(=O)Nc3ccc(C(F)(F)F)cc3)c2O[C@@H]1CN(C)CC1CCCCC1`: the concentration at half-maximal activity (AC50) was 3.63 µM.

For `CCCN(C)C[C@@H]1OCCCC[C@H](C)Oc2ccc(NC(=O)Nc3ccc(C(F)(F)F)cc3)cc2C(=O)N([C@H](C)CO)C[C@@H]1C`, the AC50 is 4.61 µM.

For the compound `CNC(=O)C[C@@H]1CC[C@@H]2[C@H](COC[C@@H](O)CN2C(=O)Nc2ccc(Cl)c(Cl)c2)O1`, the AC50 was 2.31 µM.

Regarding `O=C(NCC[C@@H]1CC[C@@H](NC(=O)c2cccnc2)[C@@H](CO)O1)Nc1ccc(C(F)(F)F)cc1`, the half-maximal activity concentration (AC50) is 13.8 µM.

For the compound `O=C(C[C@H]1CC[C@H](NC(=O)CN2CCOCC2)[C@@H](CO)O1)NCc1cccc(F)c1`, the AC50 is > 60 µM (inactive).

For the compound `O=C(NCC[C@H]1CC[C@H](NS(=O)(=O)c2ccc(F)cc2)[C@@H](CO)O1)Nc1ccc(Cl)cc1`, the half-maximal activity concentration (AC50) was 16.7 µM.

Regarding `O=C(NCC[C@H]1CC[C@@H](NC(=O)C2CC2)[C@@H](CO)O1)Nc1ccc(C(F)(F)F)cc1`, the AC50 was 1.69 µM.

For `C[C@@H]1CCCCO[C@H](CN(C)CC2CCCCC2)[C@H](C)CN([C@@H](C)CO)C(=O)c2cc(NC(=O)Nc3ccc(C(F)(F)F)cc3)ccc2O1`, the AC50 is 10.4 µM.

Take `O=C(C[C@@H]1CC[C@@H]2[C@H](COC[C@H](O)CN2C(=O)Nc2ccc(Cl)c(Cl)c2)O1)NCc1ccc(F)cc1`: the half-maximal activity concentration (AC50) is 0.968 µM.

As for `CO[C@H](CN(C)S(=O)(=O)c1cn(C)cn1)[C@@H](C)CN(C(=O)Nc1ccc(C(F)(F)F)cc1)[C@H](C)CO`, the AC50 is 2.16 µM.

With `CCNC(=O)C[C@H]1CC[C@H]2[C@@H](COC[C@@H](O)CN2C(=O)Nc2ccc(C(F)(F)F)cc2)O1`, the concentration at half-maximal activity (AC50) is 2.77 µM.

`CCNC(=O)C[C@@H]1CC[C@@H]2[C@H](COC[C@H](O)CN2C(=O)Nc2ccc(C(F)(F)F)cc2)O1`: the AC50 was 11.8 µM.

As to `CCC(=O)N[C@H]1CC[C@@H](CCNC(=O)Nc2ccc(C(F)(F)F)cc2)O[C@@H]1CO`, the AC50 was 2.73 µM.

On to `CO[C@H](CN(C)Cc1cc(F)ccc1F)[C@@H](C)CN(C(=O)Nc1ccc(C(F)(F)F)cc1)[C@H](C)CO`, for which the AC50 was 6.43 µM.

Consider `N#C[C@H]1[C@@H](c2ccc(C#Cc3cccc(F)c3)cc2)[C@H](CO)N1C(=O)C1CCC1`, for which the concentration at half-maximal activity (AC50) is 26.4 µM.

Consider `CO[C@@H]1CN(C)C(=O)c2cc(NC(=O)Nc3cc(Cl)cc(Cl)c3)ccc2OC[C@H](C)NC[C@@H]1C`, for which the AC50 was 9.05 µM.

Consider `CO[C@H]1CN(C)C(=O)c2ccc(NC(=O)Nc3ccccc3)cc2OC[C@@H](C)NC[C@@H]1C`, for which the AC50 was > 60 µM (inactive).

Regarding `CCC(=O)N[C@@H]1CC[C@@H](CCNC(=O)Nc2ccc(C(F)(F)F)cc2)O[C@H]1CO`, the AC50 is 2.75 µM.

In the case of `CO[C@H]1CN(C)C(=O)c2ccc(NC(=O)c3cccc(F)c3)cc2OC[C@@H](C)N(C(C)=O)C[C@@H]1C`, the AC50 was > 60 µM (inactive).

For `O=C(C[C@H]1CC[C@@H](NC(=O)CCN2CCCCC2)[C@H](CO)O1)Nc1nccs1`, the AC50 was > 60 µM (inactive).

Regarding `CCNC(=O)C[C@H]1CC[C@@H]2[C@H](COC[C@@H](O)CN2C(=O)Nc2ccc(Cl)c(Cl)c2)O1`, the concentration at half-maximal activity (AC50) is 4.25 µM.

Turning to `O=C(C[C@H]1C[C@H]2c3cc(NC(=O)Nc4ccccc4)ccc3O[C@H]2[C@H](CO)O1)NC1CCCC1`, the AC50 was > 60 µM (inactive).

With `CO[C@@H](CN(C)C(=O)C1CCOCC1)[C@H](C)CN(C(=O)Nc1ccc(C(F)(F)F)cc1)[C@@H](C)CO`, the concentration at half-maximal activity (AC50) was 3.45 µM.

Regarding `O=C(C[C@@H]1CC[C@@H]2[C@H](COC[C@@H](O)CN2C(=O)Nc2ccc(Cl)c(Cl)c2)O1)NCc1ccccc1`, the AC50 is 1.4 µM.

As to `C[C@@H]1CCCCO[C@H](CN(C)Cc2ccc3c(c2)OCO3)[C@@H](C)CN([C@@H](C)CO)C(=O)c2cc(NS(=O)(=O)c3cccs3)ccc2O1`, the AC50 is 13.8 µM.

For `COc1cccc(C#Cc2cnc3c(c2)C(=O)N([C@H](C)CO)C[C@H](C)[C@@H](CN(C)C)O3)c1`, the half-maximal activity concentration (AC50) was 33.2 µM.

In the case of `COc1ccc(S(=O)(=O)Nc2ccc3c(c2)C(=O)N([C@@H](C)CO)C[C@H](C)[C@@H](CN(C)Cc2ccc4c(c2)OCO4)OCCCC[C@@H](C)O3)cc1`, the AC50 was 6.68 µM.

`O=C(C[C@@H]1CC[C@H]2[C@@H](COC[C@H](O)CN2C(=O)Nc2ccc(Cl)c(Cl)c2)O1)NCc1ccc(F)cc1`: the concentration at half-maximal activity (AC50) is 1.3 µM.

With `CO[C@@H]1CN(C)C(=O)c2cc(NC(=O)Nc3ccc(Cl)c(Cl)c3)ccc2OC[C@H](C)NC[C@H]1C`, the concentration at half-maximal activity (AC50) is 6.72 µM.

On to `CC(C)NC(=O)N(C)C[C@@H]1Oc2c(NC(=O)Nc3ccc(C(F)(F)F)cc3)cccc2C(=O)N([C@H](C)CO)C[C@@H]1C`, for which the half-maximal activity concentration (AC50) is 23.3 µM.

Turning to `O=C(C[C@@H]1CC[C@H]2[C@@H](COC[C@H](O)CN2C(=O)Nc2ccc(Cl)c(Cl)c2)O1)NCc1ccccc1`, the concentration at half-maximal activity (AC50) is 3.53 µM.

For `C[C@H]1CN([C@@H](C)CO)C(=O)c2cccc(NC(=O)c3ccncc3)c2O[C@@H]1CN(C)Cc1ccc(-c2ccccc2)cc1`, the AC50 is 1.74 µM.

As to `CO[C@@H]1CN(C)C(=O)c2ccc(NC(=O)Nc3cc(Cl)cc(Cl)c3)cc2OC[C@H](C)NC[C@@H]1C`, the AC50 is 8.07 µM.

Turning to `O=C(C[C@@H]1CC[C@H]2[C@@H](COC[C@@H](O)CN2C(=O)Nc2ccc(Cl)c(Cl)c2)O1)NCc1ccc(Cl)cc1`, the AC50 was 1.04 µM.

For `O=C(C[C@H]1CC[C@@H]2[C@H](COC[C@H](O)CN2C(=O)Nc2ccc(Cl)c(Cl)c2)O1)NCc1ccc(F)cc1`, the AC50 is 1.91 µM.

For the compound `CCNC(=O)C[C@@H]1CC[C@H]2[C@@H](COC[C@@H](O)CN2C(=O)Nc2ccc(Cl)c(Cl)c2)O1`, the AC50 was 2.6 µM.

For the compound `CO[C@H]1CN(C)C(=O)c2cc(NC(=O)Nc3cc(Cl)cc(Cl)c3)ccc2OC[C@@H](C)NC[C@@H]1C`, the AC50 was 14.7 µM.

Consider `CNC[C@@H]1OCCCC[C@H](C)Oc2ccc(NC(=O)Nc3ccc(C(F)(F)F)cc3)cc2C(=O)N([C@H](C)CO)C[C@H]1C`, for which the half-maximal activity concentration (AC50) is 19.4 µM.

Consider `CO[C@H]1CN(C)C(=O)c2ccc(NC(=O)c3nc4ccccc4s3)cc2OC[C@H](C)N(Cc2ccncc2)C[C@@H]1C`, for which the AC50 was > 60 µM (inactive).

`O=C(C[C@H]1CC[C@@H]2[C@H](COC[C@H](O)CN2C(=O)Nc2ccc(C(F)(F)F)cc2)O1)NCC1CC1`: the half-maximal activity concentration (AC50) is 3.63 µM.

Consider `CC(=O)N[C@H]1CC[C@@H](CCNC(=O)Nc2ccc(C(F)(F)F)cc2)O[C@@H]1CO`, for which the concentration at half-maximal activity (AC50) is 10.8 µM.

As for `C[C@H](CO)N1C[C@H](C)[C@@H](CN(C)Cc2ccccc2)Oc2ccc(NC(=O)Nc3ccc(C(F)(F)F)cc3)cc2CC1=O`, the half-maximal activity concentration (AC50) is 31.4 µM.

On to `O=C(C[C@H]1CC[C@H]2[C@@H](COC[C@H](O)CN2C(=O)Nc2ccc(C(F)(F)F)cc2)O1)NCCc1ccncc1`, for which the half-maximal activity concentration (AC50) is 2.37 µM.

As to `O=C(NCC[C@H]1CC[C@H](NC(=O)c2cccnc2)[C@H](CO)O1)Nc1ccc(C(F)(F)F)cc1`, the AC50 was 1.6 µM.

In the case of `CC(=O)N[C@H]1CC[C@H](CCNC(=O)Nc2ccc(C(F)(F)F)cc2)O[C@H]1CO`, the concentration at half-maximal activity (AC50) was 4.52 µM.

In the case of `C[C@H](CO)N1C[C@H](C)[C@H](CN(C)CC2CCCCC2)Oc2ccc(NC(=O)Nc3ccc(C(F)(F)F)cc3)cc2C1=O`, the half-maximal activity concentration (AC50) is 15.2 µM.
